The record followed here is patent US12642870B2, “Compositions and methods for delivery of nucleic acids” (Poseida Therapeutics, Inc., priority 2020, dated 2026).

The test system of data set [1] is Resting T-cells. The data set is described as follows: LNP delivery of nano-pB-EF1a-GFP DNA to resting T-cells. The following applies: nano-pB-EF1a-GFP DNA LNPs 0.38:0.5:0.1:0.02, lipid:nucleic acid 45:1, 24 hr. It counts as cell-based. The source says:
The experiments described in this example used CD4/CD8 positive T-cells isolated from a leukapheresis product from a healthy donor.

A short description of data set [2]: Average diameter of lipoplex nanoparticles comprising eGFP mRNA (DLS or NTA). Format: physicochemical. The note with it: lipoplex nanoparticles comprising eGFP mRNA and COMPOUND 1, both methods. As to the method: Lipoplex nanoparticles were formulated using solvent injection method. In brief, a multivalent cationic bolaform amphiphilic lipid (4.0 mg) was dissolved in dimethyl sulfoxide (1 mL) to obtain 4 mg/mL solution. The solution was heated for 15 min at 40° C. to dissolve the lipid. DNA or mRNA (0.040 mg) was diluted with 50 mM Sodium acetate buffer (2 mL, pH 5.5) to obtained 0.02 mg/mL solution. Bolamphiphile lipid solution (0.4 mg, 100 p1) was injected in DNA or mRNA solution (0.04 mg, 2 mL) under constant sonication. The mass ratio of […] was kept constant to 10 for all the bolamphiphile formulation. The sonication was continued for 5 min. The solution was dialyzed (MWCO 30 kDa) for 4-6 hours in PBS (1×, pH 7.4) at room temperature. Sample was concentrated using Amicon centrifuge tube (30 kDa) to get the desired concentration for subsequent in vivo or in vitro use.
Lipoplex nanoparticles were prepared comprising mRNA encoding eGFP using COMPOUND 1 according to the method above and the average diameter of the resulting nanoparticles was determined by DLS or NTA. Both methods yielded average diameters of about 120 nm and the presence of RNA in the nanoparticle was confirmed by gel electrophoresis as described in Example 3.

Data set [3] in a line: Physical characterisation of mRNA-containing LNPs (DLS, NTA, zeta potential). Format: physicochemical. The following applies: Fluc mRNA LNPs: compound/DOPE/Cholesterol/DMG-PEG2000 41.44/45.85/10/2.7, lipid:RNA 40:1 (w/w). As to the method: A series of ten multi-component LNP compositions of the present disclosure comprising exemplary compounds of Formula (I) was prepared by combining various percentages of an exemplary compound of Formula (I), the phospholipid DOPE, the structural lipid cholesterol (Chol) and 1,2-dimyristoyl-sn-glycerol methoxypolyethylene glycol (DMG-PEG2000; Avanti Polar Lipids, Alabaster, Alabama, USA).
Individual 25 mg/ml stock solutions were prepared by solubilizing the lipids in 200-proof HPLC-grade ethanol and stock solutions were stored at −80° C. until formulated. At the time of formulation, the lipid stock solutions were briefly allowed to equilibrate to room temp and then placed on a hot plate maintained at a temperature range of 50-55° C.
A 1 mg/mi solution of the desired mRNA to be incorporated into the LNPs was added to 150 mM sodium acetate buffer (pH 5.2) to form a stock solution and kept on ice. The lipid phase was mixed with the aqueous m RNA phase inside a microfluidic chip using a NanoAssemblr® instrument (Precision Nanosystems, Vancouver, BC, Canada) according to the manufacturer's instructions to form LNP compositions comprising encapsulated mRNAs.
The resultant mRNA LNP compositions were then transferred to a Repligen Float-A-Lyzer dialysis device—having a molecular weight cut off (MWCO) of 8-10 kDa (Spectrum Chemical Mfg. Corp, CA, USA) and processed by dialysis against phosphate buffered saline (PBS) (dialysate:dialysis buffer volume at least 1:200 v/v), pH 7.4 overnight at 4° C. (or alternatively room temperature for at least 4 hours), to remove the 25% ethanol and achieve a complete buffer exchange. In some experiments the LNPs were further concentrated by in an Amicon® Ultra-4 centrifugal filter unit, MWCO-30 kDa (Millipore Sigma, USA) spun at ˜4100×g in an ultracentrifuge. The mRNA LNPs were then stored at 4° C. until further use.
A series of multicomponent LNP compositions comprising one of COMPOUNDS 1-8 described in Example 1 and the mRNA encoding flue was prepared according to Example 2 and the physical characteristics of the resulting LNPs were analyzed.
In a separate experiment, LNP compositions of the present disclosure comprising mRNA encoding firefly luciferase (hereafter “Fluc”; TriLink) and COMPOUNDS 1-8 were prepared as described in Example 2 by combining one of COMPOUNDS 1-8, the phospholipid DOPE, the structural lipid cholesterol (Chol) and 1,2-dimyristoyl-sn-glycerol methoxypolyethylene glycol (DMG-PEG2000) in the percentages presented in Table 8: […]

Data set [4] relates to HEK293T cells. The data set is described as follows: In vitro lipoplex nanoparticle delivery of eGFP mRNA to adherent cells. Format: cell-based. As to the method:
HEK293T cells were seeded in 96 well plates and grown to 70% confluence in [DMEM+10% FBS under a 5% CO2 atmosphere at 37° C. Lipoplex nanoparticles comprising COMPOUND 1 and 0.007, 0.03, 0.125, and 0.50 μg mRNA encoding eGFP were added to the cells. Following incubation with the lipoplex nanoparticles, cells were assessed for GFP expression by epifluorescence microscopy and flow cytometry.

Data set [5] relates to Resting T-cells. Description: LNP delivery of eGFP mRNA to resting T-cells. Format: cell-based. The following applies: eGFP mRNA LNPs 0.4144:0.4585:0.1:0.027, lipid:nucleic acid 40:1, 0.5 ug mRNA per well, 24 hrs. As for the experimental part: In one experiment, LNPs of the present disclosure comprising one of COMPOUNDS 1-4, DOPE, Cholesterol and DMG-PEG2000 at a molar ratio of 0.4144:0.4585:0.1:0.027 and further comprising Cleancap mRNA encoding eGFP were formed on a NanoAssemblr® (Precision Nanosystems). […] Resting T-cells were treated with varying amounts of the four LNP composition and at 24 hrs, the cells were analyzed to determine the percentage of cells that were viable and that expressed […]. The results of the analysis are shown in Table 12 for a dose of 0.5 ug mRNA per well.

Data set [6] in a line: Physical characterisation of DNA-containing LNPs (DLS, NTA, zeta potential). It counts as physicochemical. The following applies: nano-pB-EF1a-GFP DNA LNPs: compound/DOPE/Cholesterol/DMG-PEG2000 38.0/50.0/10.0/2.0, lipid:DNA 45:1 (w/w). As to the method:
LNP compositions of the present disclosure comprising DNA, a nanoplasmid encoding a piggyBac transposon, wherein the piggyBac transposon comprised GFP under control of the EF1a promoter (herein referred to as the nano-pB-EF1a-GFP), and one of COMPOUNDS 1-8 were prepared as described in Example 3 by combining one of COMPOUNDS 1-8, the phospholipid DOPE, the structural lipid cholesterol (Chol) and 1,2-dimyristoyl-sn-glycerol methoxypolyethylene glycol (DMG-PEG2000) in the following percentages in Table 20: […]

Data set [7] can be described thus: Agarose gel electrophoresis for nucleic acid incorporation. The following applies: 1% agarose gel, SYBR Safe, naked mRNA control. It counts as physicochemical. As for the experimental part: The LNP compositions were analyzed to verify the presence of mRNA. An aliquot of each of the LNP compositions was loaded on to a 1% agarose gel with a size standard and naked mRNA control, subject to electrophoresis and the presence of mRNA was detected by exposure of ultraviolet light to excite the fluorophore (SYBR Safe) which is complexed with nucleic acid. The free mRNA migrated in the gel in accordance with its molecular weight whereas all of the mRNA-containing LNP compositions remained at the interface of the agarose gel and the well with little to no detectable free mRNA indicating the LNP compositions comprising COMPOUND 1 of Example 1 were capable of incorporating mRNA.

Data set [8] relates to HEK293T cells. The data set is described as follows: In vitro LNP delivery of eGFP mRNA to adherent cells. Format: cell-based. The following applies: 0.125 μg eGFP mRNA per well, 24 hr, flow cytometry, LNP 41.44/45.85/10.0/2.7, lipid:RNA 40:1. As for the experimental part:
HEK293T cells were seeded in 96 well plates and grown to 70% confluence in DMEM+10% FBS] under a 5% CO2 atmosphere at 37° C. A 0.125 μg amount of 5′-CleanCap-eGFP mRNA (TriLink Biotech) formulated with LNP compositions comprising COMPOUNDS 1-4 as prepared in Example 3 at the following percentages in Table 10 was added to each well.
After incubating for 24 hr, cells were imaged for GFP expression with a Leica fluorescence microscope and then detached from 96 well plate to quantitate expression by flow cytometry.
Background: Flow cytometry measures light scatter and fluorescence of single cells or particles in a stream.

In the case of `CC(C)C(CCC(C)C(CCC1CCC(C(=O)NCCCCCCNC(=O)C2CCC(CCC(SCCN(C)C)C(C)CCC(SCCN(C)C)C(C)C)C(SCCN(C)C)C2)CC1SCCN(C)C)SCCN(C)C)SCCN(C)C` (stereo not shown) [Compound 1], the “% Viable GFP+” value was 35.2% in the data set on Resting T-cells [1], 9.5% in the data set with Resting T-cells [5] and 23.5% with HEK293T cells [8]. The “average diameter of lipoplex nanoparticles” value in data set [2] was “about 120 nm”. Besides, the “Diameter (DLS; nm)” value in data set [3] was determined as 155.1 nm; in data set [6], 123.5 nm. Besides, the “Diameter (NTA; nm)” value in data set [3] is on record as 126.5 nm; in data set [6], 96.9 nm. In addition, the PDI in data set [3] was 0.174; in data set [6] it was 0.17. Besides, the “Total Particles/ml” value was found to be 1.66E+11 Particles/ml in data set [3] and 5.76E+11 Particles/ml in data set [6]. Further, the “Zeta Potential (mV)” value in data set [3] amounted to 1.41 mV; in data set [6], 0.67 mV. Further, the “% GFP” value is reported as 0.99% in the data set on HEK293T cells [4] (lipoplex nanoparticles comprising COMPOUND 1, 0.007 μg mRNA); 7.37% in the data set on HEK293T cells [4] (lipoplex nanoparticles comprising COMPOUND 1, 0.03 μg mRNA); 30.1% with HEK293T cells [4] (lipoplex nanoparticles comprising COMPOUND 1, 0.125 μg mRNA); 56.1% in the data set with HEK293T cells [4] (lipoplex nanoparticles comprising COMPOUND 1, 0.50 μg mRNA). The “incorporation of mRNA into the nanoparticle compositions by gel electrophoresis” value in data set [7] was “confirmed”.
